{
  "source": "patent US7678884B2",
  "about": "“Biologically active peptide and agent containing the same” (Seikagaku Corporation, priority 2003, dated 2010)",
  "key": {"OCCM30 cells": {"tested_on": "OCCM30 cells", "test": "Cell differentiation of OCCM30 cells (ALP activity)", "type": "cell-based, mouse", "conditions": "DMEM containing 2% FBS; versus control (FIG. 11)", "description": "As mouse-derived cementoblasts, cells of the OCCM30 cell strain (Bone, 1999 Jul., 25(1):39-47) were used. This cell strain was provided from Professor Somerman of School of Dentistry University of Washington.\nAs an index of cell differentiation, alkaline phosphatase (ALP) activity of cells was determined. Cells were inoculated in a 24-well culture plate at a ratio of 5×10^3 cells/well, added with the peptide (a) at various concentrations and cultured in DMEM or αMEM containing 2% FBS. One week after the time point when the cells reached a confluent state, ALP activity was determined by the following enzymochemical method (Bessey-Lowry method, Bessey O A, Lowry O H and Brock M J, A method for the rapid determination of alkaline phosphatase with five cubic millimeter of serum, J. Biol. Chem., 164:321-329, 1946).\nThe cultured cells were washed with PBS and then disrupted in 10 mM Tris-HCl buffer (pH 7.4, 500 μl) for 40 seconds by using an ultrasonic homogenizer (Handy Sonic model UR-20P, Tomy Seiko) and stirred. Then, 25 μl of this sample liquid was added to 125 μl of ALP buffer (0.1 M carbonate buffer, pH 9.8, 6.7 mM p-nitrophenyl phosphate, 2 mM MgCl2) and incubated at 37° C. for 30 minutes. The reaction was terminated by addition of 125 μl of 0.2 N NaOH, and absorbance was measured at 405 nm by using a microplate reader (Model 550, Bio-Rad Laboratories). […]"}, "MC3T3 cells": {"tested_on": "MC3T3 cells", "test": "Calcification product forming ability of MC3T3 cells (Dahl's calcium staining)", "type": "cell-based, mouse", "conditions": "two weeks after confluent state", "description": "To assess calcification ability of cells, Dahl's calcium staining was performed. The PDL cells were inoculated on a 24-well culture plate at a ratio of 5×10^3 cells/well, and cultured in 2S-containing DMEM added with the peptide (a) or (c) at various concentrations and adjusted by addition of 10 mM sodium β-glycerophosphate. […]\nFurther, the peptide (a), BMP2 and TGFβ were similarly examined by using the MC3T3 cells."}, "[1]": {"tested_on": "periodontal disease model", "test": "Periodontal disease model (histology of defect at first molar of the upper jaw)", "type": "in vivo, Wistar rats", "conditions": "one month after operation", "description": "The following experiment was performed in order to examine action of the peptide of the present invention on a periodontal disease model. • (i) Preparation of Periodontal Disease Model 8-week old Wistar rats were systemically anesthetized with an ethyl carbamate solution in a volume of 0.5 ml per 100 g of body weight, and then the mesial gingiva of each first molar on the upper jaw was vertically incised. The gingival periosteal flap was reflected to expose the mesial alveolar bone of the first molar. Then, a defect having a length of about 2 mm and a buccolingual diameter of about 1 mm was formed from the alveolar bone crest of the same site towards the root apex side by using a fissure bur under pouring saline to expose the mesial root face of the first molar on the upper jaw. The root cementum and surface of dentin was removed together with the periodontal ligament attached to the exposed root face so as to make a shallow cavity. • (ii) Test Method At the aforementioned defect, a sample prepared with 1% PBS solution of sodium hyaluronate (weight average molecular weight: 900,000) was applied on the exposed root face, and the gingival periosteal flap was repositioned and sutured. By using a group of the animals applied with 1% PBS solution of sodium hyaluronate containing the peptide (a) (concentration of the peptide (a): 0.3 mg/ml) as the peptide group, a group of the animals applied with 1% PBS solution of sodium hyaluronate alone as the hyaluronic acid group, and a group of the animals applied with no substance before suture of the gingival periosteal flap for restoration as the control group, healing conditions were compared one month after the operation. The animals were euthanized with chloroform, and each experimental site was excised. The excised upper jaw bone was fixed by immersion in neutrally buffered formalin for 1 day and then decalcified over 2 days by using a rapid decalcifying solution (K-CX). The specimen was embedded in paraffin in a conventional manner, then a mesiodistal section having a thickness of […] and parallel to the longitudinal axis of the tooth root was prepared at the experiment site and stained with hematoxylin/eosin. Adhesion condition of periodontal tissue to the exposed surface of the tooth root at the defective site and the position of the apex of the alveolar bone were evaluated light microscopically. • (iii) Results (Findings)"}, "[2]": {"conditions": "peptide (a) 0.3 mg/ml in 1% PBS solution of sodium hyaluronate"}},
  "note": "Ends that are not written are not given here.",
  "data": [
    {"sequence": "VPAFPRQPGTPGVASL [Peptide (a)]", "values": [
      {"measurement": "cell differentiation promoting effect (ALP activity) on OCCM30 cells", "setting": "OCCM30 cells", "result": "significant cell differentiation promoting effect"},
      {"measurement": "cell differentiation promoting effect (calcification) on MC3T3 cells", "setting": "MC3T3 cells", "result": "significant cell differentiation promoting effect"},
      {"measurement": "cell differentiation promoting effect (calcification) on MC3T3 cells relative to BMP2", "setting": "MC3T3 cells; comparison with BMP2", "result": "comparable to or higher than that of BMP2"},
      {"measurement": "down-growth of the epithelium", "setting": "[1]; peptide (a) 0.3 mg/ml in 1% PBS solution of sodium hyaluronate applied on exposed root face, versus control and hyaluronic acid groups", "result": "observed to a less extent"},
      {"measurement": "deposition of cementum with Sharpey's fibers on the exposed root surface", "setting": "[1]; [2]", "result": "deposition of cementum with Sharpey's fibers, that is, new connective tissue attachment formation, was observed"},
      {"measurement": "separation between the gingiva and the tooth root", "setting": "[1]; [2]", "result": "no such separation was observed"},
      {"measurement": "bone regeneration at the periodontal defect", "setting": "[1]; peptide (a) 0.3 mg/ml in 1% PBS solution of sodium hyaluronate, versus control and hyaluronic acid groups", "result": "more active than in the other two groups"}
    ]}
  ]
}
